According to patent publication US20230104503A1, “SMALL MOLECULE COMPOUNDS” (THE REGENTS OF THE UNIVERSITY OF CALIFORNIA, priority 2021, published 2023):

Key:
naïve CD4+ mouse T cells = assay: FACS of stimulated naïve CD4+ mouse T-cells for CD4+CD25+FOXP3+; conditions: 1 uM
[1] = humans; cited from earlier work
mTOR = assay: Phospho-flow (FACS) of phospho-p70S6K / p-S6 in activated mouse T-cells; type: cell-based
Protocol: Whole splenocyte from OT1 B6 mice was extracted. […] Cells were activated with compounds for 30 mins, 1 hour, 2 hours, and overnight. For each time point, p-S6, a downstream of mTORC1 pathway, was gated on low and high based on the DMSO and no stimulation control.

Treg cells = assay: Treg assays for RAP35: Treg cells with expander beads; type: cell-based; conditions: 100 nM
conventional T cells = assay: Treg assays for RAP35: culture of conventional T cells; type: cell-based
[2] = Stability during semi-preparative HPLC; type: physicochemical; conditions: 65% acetonitrile with 35% water, 50° C.
Protocol: The crude was then dissolved in acetonitrile, and the resulting solution was subjected to semi-preparation using an Agilent Zorbax column (SB-C18, 5 μm, 9.4×250 mm, Agilent Technologies Inc., CA) heated to 50° C. by isocratic elution of 65% acetonitrile with 35% water at a flow rate of 3.5 mL/min. The absorbance at 278 nm wavelength was monitored.

naïve CD4+ mouse T-cells = assay: FACS for expansion of CD62L+ memory T-cells; type: cell-based
Protocol: RAP23 was further evaluated by treating naïve CD4+ T-cells at multiple concentrations (1 nM to 1 uM) for expansion of CD62L+ memory T-cells. […] These 5 compounds were identified to have reduced immunosuppression (with improved safety) with maximum and durable expansion of memory T-cells.

[3] = system: CD8 cells isolated from p14 transgenic mice; assay: CD8 CTV-labelled proliferation assay; type: cell-based, mouse; conditions: activated for 72 hours; relative to RAP35 and rapamycin
Protocol: The five analogs and rapamycin were assayed for their effect on proliferation and correlation to p70S6K inhibitory activity. […] The proliferation was measured by FACS. The five analogs were tested at varying concentrations (10 nM, 100 nM, and 100 μM), activated for 72 hours with rapamycin and DMSO treated controls.
CD8 cells were isolated from p14 transgenic mice, then labelled with CTV. The labelled cells then were activated with plate-bound anti-CD3 (5 μg/mL) and soluble anti-CD28 (2 μg/mL), along with rapamycin, rapamycin analog, or DMSO. After activation of 48 hours and 72 hours, the cells were collected to assay the CVT labelling signal using flow cytometry. All rapamycin analogs decrease proliferation in CD8 cells, with varying potency (FIG. 12).

## CO[C@H]1C[C@@H]2CC[C@@H](C)[C@@](O)(O2)C(=O)C(=O)N2CCCC[C@H]2C(=O)O[C@H]([C@H](C)C[C@@H]2CC[C@@H](O)[C@H](OC)C2)CC(=O)[C@H](C)/C=C(\C)[C@@H](O)[C@@H](OC)C(=O)[C@H](C)C[C@H](C)/C=C/C=C/C=C/1C [rapamycin, reference compound]
naïve CD4+ mouse T cells
  FOXP3+ count: 53.3
[1]
  terminal half-life: 24 to 48 h

## CO[C@H]1C[C@@H]2CC[C@@H](C)[C@@](O)(O2)C(=O)C(=O)N2CCCC[C@H]2C(=O)O[C@H](CC[C@@H]2CC[C@@H](O)[C@H](OC)C2)CC(=O)[C@H](C)/C=C(\C)[C@@H](O)[C@@H](OC)C(=O)[C@H](C)C[C@H](C)/C=C/C=C/C=C/1C [RAP35, (3R,6R,7E,9R,10R,12R,14S,15E,17E,19E,21S,23S,26R,27R,34aS)-9,27-dihydroxy-3-(2-((1S,3R,4R)-4-hydroxy-3-methoxycyclohexyl)ethyl)-10,21-dimethoxy-6,8,12,14,20,26-hexamethyl-9,10,12,13,14,21,22,23,24,25,26,27,32,33,34,34a-hexadecahydro-3H-23,27-epoxypyrido[2,1-c][1]oxa[4]azacyclohentriacontine-1,5,11,28,29(4H,6H,31H)-pentaone]
mTOR; following overnight stimulation, therapeutic concentrations (1-200 nM)
  p70S6 high cells: significantly reduced
naïve CD4+ mouse T cells
  FOXP3+ count: 45.8
Treg cells
  frequency of Treg cells: reduce
Treg cells; Treg cells
  expression of CCR7: reduce
  expression of CD45RO: reduce
  expression of CXCR3: reduce
  phosphorylation of 4EBP1: reduce
  phosphorylation of S6: reduce
Conventional T cells; 100 nM
  anti-inflammatory effects (Cell Proliferation Dye and phenotypic markers): promising anti-inflammatory effects
Conventional T cells; 100 nM, conventional T cells
  CCR7 expression: increased
  CD45RO expression: decreased
Conventional T cells; compared to stimulated CD3 T cells
  mitochondrial membrane potential (MitoProbe): reduced

## CO[C@H]1C[C@@H]2CC[C@@H](C)[C@@](O)(O2)C(=O)C(=O)N2CCCC[C@H]2C(=O)O[C@H](CC[C@@H]2CC[C@@H](O)[C@H](OC)C2)CC(=O)[C@H](C)/C=C(\C)[C@@H](O)CC(=O)[C@H](C)C[C@H](C)/C=C/C=C/C=C/1C [RAP35/27A, (3R,6R,7E,9S,12R,14S,15E,17E,19E,21S,23S,26R,27R,34aS)-9,27-dihydroxy-3-(2-((1S,3R,4R)-4-hydroxy-3-methoxycyclohexyl)ethyl)-21-methoxy-6,8,12,14,20,26-hexamethyl-9,10,12,13,14,21,22,23,24,25,26,27,32,33,34,34a-hexadecahydro-3H-23,27-epoxypyrido[2,1-c][1]oxa[4]azacyclohentriacontine-1,5,11,28,29(4H,6H,31H)-pentaone]
[2]
  stability in the process of semi-preparation: tended to be unstable

## CO[C@H]1C[C@@H]2CC[C@@H](C)[C@@](O)(O2)C(=O)C(=O)N2CCCC[C@H]2C(=O)O[C@H]([C@H](C)C[C@@H]2CC[C@@H](O)[C@H](OC)C2)CC(=O)[C@H](C)/C=C(\C)[C@@H](O)[C@@H](OC)C(=O)[C@H](C)CC/C=C/C=C/C=C/1C [RAP23, (3S,6R,7E,9R,10R,12R,15E,17E,19E,21S,23S,26R,27R,34aS)-9,27-dihydroxy-3-((R)-1-((1S,3R,4R)-4-hydroxy-3-methoxycyclohexyl)propan-2-yl)-10,21-dimethoxy-6,8,12,20,26-pentamethyl-9,10,12,13,14,21,22,23,24,25,26,27,32,33,34,34a-hexadecahydro-3H-23,27-epoxypyrido[2,1-c][1]oxa[4]azacyclohentriacontine-1,5,11,28,29(4H,6H,31H)-pentaone]
mTOR; even at 1 uM
  inhibition of the p70S6 high signal: never fully inhibited
naïve CD4+ mouse T-cells; 1 nM to 1 uM
  portion of cells possessing a phospho-p70S6K high/CD62L+high phenotype: 7-10%
naïve CD4+ mouse T-cells; overall assessment
  generation of memory versus inhibition of proliferation: promote potent generation of memory without potently inhibiting proliferation
naïve CD4+ mouse T-cells; relative to all doses of rapamycin (including 1 nM)
  phospho-p70S6K low/CD62L+high phenotype: reduced
[3]
  proliferation of CTV-labelled CD8 cells: increased proliferation
